# Data published in patent US12730111B2, “Systems, methods, and compositions to identify new protein targets of a chemical compound or its derivatives” (priority 2019, dated 2026).
# Key:
# [1] = system: PVS tagging of cysteine thiol groups of cellular proteins in HeLa cells; assay: Competition of PVS tagging in HeLa cells or lysate (anti-PVS immunoblot); format: cell-based
# Method: HeLa cells were treated with 10 μM to 1 mM PVS in PBS for 1 h or with 0.1-2 mM PVD in PBS for 30 min. In the case of PVS and PVD combined treatment, HeLa cells were pretreated with PVD for 30 min and then treated with PVS in PBS for 1 h.
# Based on the observations that PVS and PVSN were PTP covalent inhibitors (22), we attempted to develop an antiserum against PVS and use the antiserum in the identification of PVS-tagged proteins through immunoblotting and immunoprecipitation. First, we confirmed the inhibitory activity of PVS on PTPs and tested the efficacy of our antiserum against PVS. […] Higher concentrations of PVS elicited higher levels of PVS modification, but with the same pattern. […] Specificity of the anti-PVS was further tested by the combined treatment of ethyl vinyl sulfone (EVS) and PVS. HeLa cells were pretreated with 10 μM to 1 mM EVS in PBS for 30 min and then treated with 100 μM PVS in PBS for 1 h.
# Pervanadate is an irreversible PTP inhibitor by oxidizing the active-site cysteine thiol of PTPs (24). If both PVS and pervanadate target the same thiol group, pretreatment of pervanadate would hinder the tagging of PVS. […] Next, we tested the competition of BVT 948 and NSC 95397 on the tagging of PVS. BVT 948 (25) and NSC 95397 (26) are PTP and dual specificity phosphatase inhibitors, respectively. Treatment of both drugs elicited increased amounts of tyrosine phosphorylation, albeit with different sensitivity and pattern.
# HeLa cells were cultured to about 90% confluence on a 10-cm dish in DMEM with 10% FBS (5×10^6~1×10^7 cells). HeLa cells were lysed by repeated pipetting with 900 μL 2% Triton X-100 in 20 mM Tris-HCl, pH 8.0. The lysate was centrifuged at 12,000×g for 10 min and the supernatant was aliquoted (200 μL) and treated with PVS, PVSN, or Bay 11-7082 of various concentrations at room temperature for 5 to 60 min. The stocks of 1000×PVS, 1000×PVSN, and 1000× Bay 11-7082 were prepared in DMSO. The reaction was stopped by adding 1,4-dithioerythreitol to a final concentration of 10 mM. The reaction solution was then mixed with equal volume of 2× SDS sample buffer. Ten μL sample solution was used for SDS gel electrophoresis and immunoblotting. The signal of GAPDH was used to adjust the amount of protein loading.
# PC-9 cells = assay: Afatinib labeling of proteins in PC-9 cells (anti-afatinib immunoblot); conditions: 1 h
# Method: The control groups were treated with the same volume of DMSO.
# [2] = system: protein asymmetric dimethylarginine (ADMA) in HeLa cells; assay: Protein ADMA levels in cultured HeLa cells (immunoblot); format: cell-based; conditions: for levels of protein ADMA in cell culture: 50 μM, short-term treatment
# Method: Each group contained the same volume of DMSO and ethanol. After wash with TBS for three times, the cells were lysed with 900 μL RIPA lysis buffer and centrifuged to pellet down the debris. The supernatant was then transferred to a new tube and mixed with equal volume of 2×SDS sample buffer. Ten μL sample solution was for electrophoresis and immunoblotting. The signal of anti-GAPDH was used to adjust the amount of protein loading.
# Since Bay 11-7082 inhibited PRMT1 activity in an in vitro assay, we then tested the inhibitory activity of this compound in cultured HeLa cells. The levels of ADMA are regulated by both methylation and demethylation. […] Some proteins of ADMA persisted several days in the absence of PRMT1. […] We also used histone H4R3 asymmetric dimethylation antibody as one kind of pan ADMA antibody (right panel, Supplementary FIG. 5). However, we noticed that the ADMA signals of one or two proteins increased in this experiment possibly due to the compensation activity caused by other PRMT family proteins (39) or disturbance of cell cycle progression affected by other target proteins of Bay 11-7082 (40). It is of interest to note that phenylsulfonyl structure present in Bay 11-7082 is also found in a PRMT1 inhibitor, C-7280948 (41), indicating the Bay 11-7082 could be a good lead compound for developing PRMT1 inhibitors. […] We included another Bay 11-7082 analog, Bay 11-7085 for comparison (42, 43).
# PTPs in HeLa cells = assay: Phosphotyrosine levels in HeLa cells (PTP inhibition, immunoblot); format: cell-based; conditions: 10 and 100 μM for 5 min
# Method: FIG. 4 describes use of anti-PVS in recognition of PVSN and Bay 11-7082 adducts.
# We next examined whether anti-PVS antiserum can be used in detection of target proteins probed by PVS analogs such as PVSN and Bay 11-7082. Treatment of PVSN and Bay 11-7082 at concentrations of 10 and 100 μM for 5 min increased the levels of phosphotyrosine modification in HeLa cells, especially Bay 11-7082 at 100 μM (FIG. 4) confirming their effects in PTP inhibition. PVSN-tagged proteins were abundantly recognized by anti-PVS antiserum (FIG. 5A), but only few Bay 11-7082-tagged proteins were detected by the anti-PVS antiserum (FIG. 5B). Therefore, anti-PVS antiserum can be readily used in the detection of proteins modified by PVS and PVSN.
# [3] = target: T1, Recombinant glutathione reductase (Homo sapiens, UniProt P00390); assay: In vitro enzyme activity of glutathione reductase; format: biochemical
# T1 construct: purchased BioVision
# T1 sequence (P00390 44-522): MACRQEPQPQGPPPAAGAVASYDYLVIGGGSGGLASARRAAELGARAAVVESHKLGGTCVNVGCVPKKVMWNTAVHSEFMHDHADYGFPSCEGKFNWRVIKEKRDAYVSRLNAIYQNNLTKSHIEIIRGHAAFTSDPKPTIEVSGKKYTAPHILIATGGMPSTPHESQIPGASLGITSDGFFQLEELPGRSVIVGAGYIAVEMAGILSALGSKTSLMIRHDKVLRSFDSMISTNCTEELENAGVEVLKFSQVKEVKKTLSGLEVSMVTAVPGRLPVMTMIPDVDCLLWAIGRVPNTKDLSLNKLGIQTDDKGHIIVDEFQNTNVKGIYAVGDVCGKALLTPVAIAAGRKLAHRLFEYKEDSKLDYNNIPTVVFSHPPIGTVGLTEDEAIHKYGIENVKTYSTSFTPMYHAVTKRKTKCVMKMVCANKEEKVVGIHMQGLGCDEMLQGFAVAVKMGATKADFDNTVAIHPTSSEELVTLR
# Method: Recombinant glutathione reductase was first treated with NADPH and 10 or 50 μM PVS, PVSN or Bay 11-7082 for 1 h at room temperature. In the control group, recombinant glutathione reductase was treated with NADPH and the same volume of DMSO used in the treatment of drugs in the assay buffer. Following the addition of oxidized glutathione, the decrease in absorbance at A340 was monitored over 10 min. Results were presented as mean of three independent experiments plus and minus standard deviation.
# The assay was carried out according to the protocol provided by BioVision Inc. (Catalog number K761-200). Recombinant glutathione reductase was first treated with NADPH and 10 μM or 50 μM PVS, PVSN or Bay11-7082 for 30 min at room temperature. In the control group, recombinant glutathione reductase was treated with NADPH and the same volume of DMSO used in the treatment of drugs in the assay buffer. Following the addition of oxidized glutathione, the decrease in absorbance at A340 was monitored over 10 min.
# Based on the proteomic results, we first examined whether PVS, PVSN and Bay 11-7082 affected the activity of glutathione reductase (FIG. 5). All compounds were ineffective in inhibiting glutathione reductase at 10 μM. However, PVSN and Bay 11-7082 at 50 μM inhibited the activity of glutathione reductase by 61% and 74%, respectively. […]
# recombinant PRMT1 = target: T2, recombinant PRMT1 (Homo sapiens, UniProt Q99873); assay: In vitro PRMT1 activity assay (histone H4 methylation, immunoblot); format: biochemical; conditions: for concentration that caused significant inhibition of methylation of histone H4: recombinant PRMT1, histone H4, S-adenosylmethionine; for IC50: three-point curve fit (5, 10, 100 μM), an estimation, read-out: IC50 (PRMT1, histone H4 as substrate)
# T2 construct: purchased BPS Bioscience
# T2 sequence (Q99873 whole entry): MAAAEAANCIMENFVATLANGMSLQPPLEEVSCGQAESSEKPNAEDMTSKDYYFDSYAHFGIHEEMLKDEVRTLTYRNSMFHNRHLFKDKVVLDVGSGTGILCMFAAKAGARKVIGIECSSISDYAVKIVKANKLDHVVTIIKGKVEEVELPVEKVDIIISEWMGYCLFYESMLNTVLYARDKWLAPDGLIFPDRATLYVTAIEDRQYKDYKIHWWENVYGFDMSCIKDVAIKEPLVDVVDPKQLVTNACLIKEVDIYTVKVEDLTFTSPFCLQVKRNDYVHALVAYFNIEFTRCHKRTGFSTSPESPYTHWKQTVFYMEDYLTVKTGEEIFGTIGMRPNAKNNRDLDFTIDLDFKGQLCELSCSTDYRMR
# From the text: Three-point IC50 curves may provide an estimation, but certainly not an accurate calculation (data is not shown).
# recombinant RRM1 or RRM2 = assay: Competition of afatinib labeling of recombinant RNR subunits; conditions: pretreatment 2.5 mM, then 10 μM afatinib
molecule,measurement,setting,value
O=C1C(SCCO)=C(SCCO)C(=O)c2ccccc21 [NSC 95397],"blocking of PVS tagging, comparison",[1]; in vitro and in cellulo,blocked PVS tagging better than BVT 948
CN(C)C/C=C/C(=O)Nc1cc2c(Nc3ccc(F)c(Cl)c3)ncnc2cc1O[C@H]1CCOC1 [afatinib],concentration at which labeling signals were readily observed,PC-9 cells,1 µM
O=C(Nc1ccc2c(O)cc(S(=O)(=O)O)cc2c1)Nc1ccc2c(O)cc(S(=O)(=O)O)cc2c1 [AMI-1],levels of protein ADMA in cell culture,[2],little effect
pervanadate,tagging of PVS,"[1]; HeLa cell lysate, 1 mM together with 100 μM PVS",almost completely blocked
same,tagging of PVS,[1]; HeLa cells pretreated with 1 mM for 30 min,completely blocked
"C=CS(=O)(=O)CC [EVS, ethyl vinyl sulfone]",PVS modification,"[1]; HeLa cells pretreated at 100 μM and 1 mM for 30 min, then 100 μM PVS 1 h",significantly attenuated
Cc1ccc(S(=O)(=O)/C=C/C#N)cc1 [Bay 11-7082],levels of phosphotyrosine modification,PTPs in HeLa cells,increased
same,inhibited the activity of glutathione reductase by,[3]; at 50 μM,74%
same,levels in ADMA of 25 and 35 kDa,[2]; 3 h,led to decline
same,concentration that caused significant inhibition of methylation of histone H4,recombinant PRMT1,2.5 µM
same,IC50,recombinant PRMT1,10.7 µM
"C=CS(=O)(=O)c1ccccc1 [PVS, Phenyl vinyl sulfone]",levels of protein ADMA in cell culture,[2],did not change
same,concentration that caused significant inhibition of methylation of histone H4,recombinant PRMT1,10 µM
same,IC50,recombinant PRMT1,23.3 µM
"C=CS(=O)(=O)Oc1ccccc1 [PVSN, phenyl vinyl sulfonate]",levels of phosphotyrosine modification,PTPs in HeLa cells,increased
same,inhibition at 50 µM,[3]; read-out: inhibited the activity of glutathione reductase by,61%
same,levels of protein ADMA in cell culture,[2],decreased the levels of protein ADMA slightly
same,concentration that caused significant inhibition of methylation of histone H4,recombinant PRMT1,5 µM
same,IC50,recombinant PRMT1,10.4 µM
Nc1ccn([C@@H]2O[C@H](CO)[C@@H](O)C2(F)F)c(=O)n1 [gemcitabine],afatinib labeling,recombinant RRM1 or RRM2,almost completely blocked
